Experiments:
Assay in all cases: GR value, 72 h; higher = faster growth (1 = untreated, <0 = killing);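 note: breast cancer and non-malignant breast epithelial lines, nine half-log doses, viable cells counted by Hoechst and LIVE/DEAD dye imaging versus time-zero plates and DMSO controls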
[1] = compound: CN(C)C/C=C/C(=O)NC1=CC=C(C=C1)C(=O)NC2=CC=CC(=C2)NC3=NC=NC(=C3)C4=CNC5=CC=CC=C54 [THZ-P1-2]
[2] = compound: COc1cccc(OCCCN)c1-c1cc(Nc2cnc(C#N)cn2)n[nH]1
[3] = compound: CC[C@@H]1C(=O)N(C)c2cnc(Nc3ccc(C(=O)N[C@H]4CC[C@H](N5CCN(CC6CC6)CC5)CC4)cc3OC)nc2N1C(C)C [Volasertib/BI6727]
[4] = compound: CCNC(=O)c1noc(-c2cc(C(C)C)c(O)cc2O)c1-c1ccc(CN2CCOCC2)cc1 [Luminespib/NVP-AUY922]
[5] = compound: CO[C@H]1C[C@@H]2CC[C@@H](C)[C@@](O)(O2)C(=O)C(=O)N2CCCC[C@H]2C(=O)O[C@H]([C@H](C)C[C@@H]2CC[C@@H](OCCO)[C@H](OC)C2)CC(=O)[C@H](C)/C=C(\C)[C@@H](O)[C@@H](OC)C(=O)[C@H](C)C[C@H](C)/C=C/C=C/C=C/1C [Everolimus]
[6] = compound: Cc1nc(Nc2ncc(C(=O)Nc3c(C)cccc3Cl)s2)cc(N2CCN(CCO)CC2)n1 [Dasatinib]
[7] = compound: CO[C@@H](C)Cn1c(=O)n(C)c2cnc3ccc(-c4cncc(C(C)(C)O)c4)cc3c21
[8] = compound: CN1CCN(CCOc2cc(OC3CCOCC3)c3c(Nc4c(Cl)ccc5c4OCO5)ncnc3c2)CC1 [Saracatinib/AZD0530]
[9] = compound: CN(C)C/C=C/C(=O)Nc1ccc(O[C@@H]2CCC[C@@H](Nc3ncc(Cl)c(-c4c[nH]c5ccccc45)n3)C2)cc1 [BSJ-01-175]
[10] = compound: CCC1=CN=CN=C1N2CCN(CC2)CC3=NC4=C(N3)C=C(C=C4)C(F)(F)F
[11] = compound: COc1cc2nccc(Oc3ccc(NC(=O)C4(C(=O)Nc5ccc(F)cc5)CC4)cc3)c2cc1OC [Cabozantinib]

AU565
GR value ([1]; 0.01 µM): 0.964 GR
GR value ([1]; 0.03162 µM): 1.02 GR
GR value ([1]; 0.1 µM): 0.979 GR
GR value ([1]; 0.3162 µM): 0.842 GR
GR value ([1]; 1 µM): 0.865 GR
GR value ([1]; 3.162 µM): 0.881 GR
GR value ([1]; 10 µM): -0.648 GR
GR value ([2]; 10 pM): 0.889 GR
GR value ([2]; 31.6 pM): 0.97 GR
GR value ([2]; 0.0001 µM): 1.1 GR
GR value ([2]; 0.0003162 µM): 1.09 GR
GR value ([2]; 0.001 µM): 0.219 GR
GR value ([2]; 0.003162 µM): 0.112 GR
GR value ([2]; 0.01 µM): 0.0322 GR
GR value ([2]; 0.03162 µM): 0.0412 GR
GR value ([2]; 0.1 µM): 0.077 GR
GR value ([3]; 0.0001 µM): 1.07 GR
GR value ([3]; 0.0003162 µM): 0.998 GR
GR value ([3]; 0.001 µM): 0.912 GR
GR value ([3]; 0.003162 µM): 0.756 GR
GR value ([3]; 0.01 µM): -0.409 GR
GR value ([3]; 0.03162 µM): -0.516 GR
GR value ([3]; 0.1 µM): -0.458 GR
GR value ([3]; 0.3162 µM): -0.455 GR
GR value ([3]; 1 µM): -0.206 GR
GR value ([4]; 0.0001 µM): 0.887 GR
GR value ([4]; 0.0003162 µM): 0.966 GR
GR value ([4]; 0.001 µM): 0.942 GR
GR value ([4]; 0.003162 µM): 0.648 GR
GR value ([4]; 0.01 µM): 0.165 GR
GR value ([4]; 0.03162 µM): -0.079 GR
GR value ([4]; 0.1 µM): -0.156 GR
GR value ([4]; 0.3162 µM): -0.214 GR
GR value ([4]; 1 µM): -0.227 GR
GR value ([5]; 0.001 µM): 0.523 GR
GR value ([5]; 0.003162 µM): 0.451 GR
GR value ([5]; 0.01 µM): 0.429 GR
GR value ([5]; 0.03162 µM): 0.494 GR
GR value ([5]; 0.1 µM): 0.396 GR
GR value ([5]; 0.3162 µM): 0.509 GR
GR value ([5]; 1 µM): 0.408 GR
GR value ([5]; 3.162 µM): 0.454 GR
GR value ([5]; 10 µM): 0.398 GR
GR value ([6]; 0.001 µM): 0.873 GR
GR value ([6]; 0.003162 µM): 0.908 GR
GR value ([6]; 0.01 µM): 0.966 GR
GR value ([6]; 0.03162 µM): 0.961 GR
GR value ([6]; 0.1 µM): 0.877 GR
GR value ([6]; 0.3162 µM): 0.963 GR
GR value ([6]; 1 µM): 0.875 GR
GR value ([6]; 3.162 µM): 0.73 GR
GR value ([6]; 10 µM): 0.274 GR
GR value ([7]; 0.001 µM): 0.518 GR
GR value ([7]; 0.003162 µM): 0.487 GR
GR value ([7]; 0.01 µM): 0.464 GR
GR value ([7]; 0.03162 µM): 0.273 GR
GR value ([7]; 0.1 µM): 0.269 GR
GR value ([7]; 0.3162 µM): 0.0911 GR
GR value ([7]; 1 µM): 0.0661 GR
GR value ([7]; 3.162 µM): -0.0273 GR
GR value ([7]; 10 µM): -0.533 GR
GR value ([8]; 0.001 µM): 1 GR
GR value ([8]; 0.003162 µM): 1.03 GR
GR value ([8]; 0.01 µM): 0.984 GR
GR value ([8]; 0.03162 µM): 1.03 GR
GR value ([8]; 0.1 µM): 0.952 GR
GR value ([8]; 0.3162 µM): 0.942 GR
GR value ([8]; 1 µM): 0.86 GR
GR value ([8]; 3.162 µM): 0.671 GR
GR value ([8]; 10 µM): 0.162 GR
GR value ([9]; 0.001 µM): 0.954 GR
GR value ([9]; 0.003162 µM): 0.82 GR
GR value ([9]; 0.01 µM): 0.24 GR
GR value ([9]; 0.03162 µM): -0.144 GR
GR value ([9]; 0.1 µM): -0.164 GR
GR value ([9]; 0.3162 µM): -0.381 GR
GR value ([9]; 1 µM): -0.45 GR
GR value ([9]; 3.162 µM): -0.505 GR
GR value ([9]; 10 µM): -0.777 GR
GR value ([10]; 0.001 µM): 1.03 GR
GR value ([10]; 0.003162 µM): 1.08 GR
GR value ([10]; 0.01 µM): 1.01 GR
GR value ([10]; 0.03162 µM): 1.09 GR
GR value ([10]; 0.1 µM): 0.997 GR
GR value ([10]; 0.3162 µM): 0.985 GR
GR value ([10]; 1 µM): 0.932 GR
GR value ([10]; 3.162 µM): 0.808 GR
GR value ([10]; 10 µM): 0.486 GR
GR value ([11]; 0.001 µM): 1.03 GR
GR value ([11]; 0.003162 µM): 1.04 GR
GR value ([11]; 0.01 µM): 1.03 GR
GR value ([11]; 0.03162 µM): 1.06 GR
GR value ([11]; 0.1 µM): 1.06 GR
GR value ([11]; 0.3162 µM): 1.12 GR
GR value ([11]; 1 µM): 0.997 GR
GR value ([11]; 3.162 µM): 1.02 GR
GR value ([11]; 10 µM): 0.309 GR

From the supplement of paper PMC9663587
